In brackets after ≈: the same amount, converted by molar mass. Structures can show the parent of a compound that is named as a salt.
Legend:
[1] = system: spontaneously hypertensive rats; test: Hypotensive activity in male spontaneously hypertensive rats (oral); assay type: in vivo, rat; conditions: systolic pressure at tail vein, oral 10 mg/kg
Method: Hypotensive activity [Method] Male spontaneously hypertensive rats at the 12th to 16th week in age and presenting a systolic pressure of around 200 mmHg were used as experimental animals, and 3 to 8 animals were assigned to each group. The subject compound (indicated by the example number), in an aqueous solution or 5% gum arabic suspension, was orally administered in a dose of 10 mg/kg. At the 4th and 8th hours following the administration, the systolic pressure at tail vein of each rat was noninvasively measured by means of a sphygmomanometer (USM-105, Ueda Seisakusho, Japan). A group of rats administered the solvent alone was used as a control group.
Gum arabic or water was administered to rats of the control group.

Water solubility test = assay type: physicochemical; conditions: powdered, 20°±5° C., within 30 minutes, read-out: Amount (ml) of water required to dissolve 1 g of the subject compounds (converted)
Method: The subject compounds (indicated by the example number), after being powdered, were placed in water and vigorously shaken at 20°±5° C. for 30 seconds a 5-minute intervals, and within 30 minutes, the amount of water required to dissolve 1 g of the compound (I) of the present invention therein was measured.

Row | solubility at 0.5 h (Water solubility test) | SMILES | Change in blood pressure, 4 hours after administration [1] | Change in blood pressure, 8 hours after administration [1]
1 | – | COC(=O)C1=C(C)NC(C)=C(C(=O)OCC(C)(C)CN2CCN(C(C)=O)CC2)C1c1cccc([N+](=O)[O-])c1 (centres unmarked) [Example 8] | -56 mmHg | -90 mmHg
2 | 500 mg/mL (≈ 836 mM) | COC(=O)C1=C(C)NC(C)=C(C(=O)OCC(C)(C)CN2CCN(CCN3CCCCC3)CC2)C1c1cccc([N+](=O)[O-])c1 (centres unmarked) [Example 16] | -34 mmHg | -52 mmHg
3 | 500 mg/mL (≈ 897 mM) | CNC(=O)CN1CCN(CC(C)(C)COC(=O)C2=C(C)NC(C)=C(C(=O)OC)C2c2cccc([N+](=O)[O-])c2)CC1 (centres unmarked) [Example 27] | -83 mmHg | -60 mmHg
4 | 500 mg/mL | COC(=O)C1=C(C)NC(C)=C(C(=O)OCC(C)(C)CN2CCN(CCO)CC2)C1c1cccc([N+](=O)[O-])c1 (centres unmarked) [Example 15, 2,2-Dimethyl-3-[4-(2-hydroxyethyl)-1-piperazinyl]propyl Methyl 1,4-Dihydro-2,6-dimethyl-4-(3-nitrophenyl)-3,5-pyridinedicarboxylateDihydrochloride] | -52 mmHg | -47 mmHg
5 | 500 mg/mL | COC(=O)C1=C(C)NC(C)=C(C(=O)OCC(C)(C)CN2CCN(CC#N)CC2)C1c1cccc([N+](=O)[O-])c1.Cl.Cl (centres unmarked) [Example 23, 3-(4-Cyanomethyl-1-piperazinyl)-2,2-dimethylpropyl methyl 2,6-dimethyl-4-(m-nitrophenyl)-1,4-dihydropyridine-3,5-dicarboxylate dihydrochloride] | -104 mmHg | -82 mmHg
6 | 6.25 mg/mL (≈ 13 mM) | COC(=O)C1=C(C)NC(C)=C(C(=O)OCCN(C)Cc2ccccc2)C1c1cccc([N+](=O)[O-])c1 (centres unmarked) [Nicardipine, nicardipine, reference compound] | -29 mmHg | -22 mmHg
7 | – | COC(=O)C1=C(C)NC(C)=C(C(=O)OCC(C)(C)CN2CCN(C(=O)Cc3ccccc3)CC2)C1c1cccc([N+](=O)[O-])c1 (centres unmarked) [Example 5] | -90 mmHg | -87 mmHg
8 | 625 mg/mL | CC=CCN1CCN(CC(C)(C)COC(=O)C2=C(C)NC(C)=C(C(=O)OC)C2c2cccc([N+](=O)[O-])c2)CC1.Cl.Cl (centres unmarked) [Example 20, 2,2-Dimethyl-3-[4-(2-butenyl)-1-piperazinyl]propyl Methyl 1,4-Dihydro-2,6-dimethyl-4-(3-nitrophenyl)-3,5-pyridinedicarboxylate Dihydrochloride] | -84 mmHg | -82 mmHg
9 | – | COC(=O)C1=C(C)NC(C)=C(C(=O)OCC(C)(C)CN2CCN(C(=O)C=Cc3ccccc3)CC2)C1c1cccc([N+](=O)[O-])c1 (centres unmarked) [Example 7] | -76 mmHg | -84 mmHg
10 | 500 mg/mL (≈ 873 mM) | CCOC(=O)CN1CCN(CC(C)(C)COC(=O)C2=C(C)NC(C)=C(C(=O)OC)C2c2cccc([N+](=O)[O-])c2)CC1 (centres unmarked) [Example 25] | – | –
11 | – | COC(=O)C1=C(C)NC(C)=C(C(=O)OCC(C)(C)CN2CCN(C(=O)c3ccccc3)CC2)C1c1cccc([N+](=O)[O-])c1.Cl (centres unmarked) [Example 6, 2,2-Dimethyl-3-(4-benzoyl-1-piperazinyl)propyl Methyl 1,4-Dihydro-2,6-dimethyl-4-(3-nitrophenyl)-3,5-pyridinedicarboxylate Hydrochloride] | -64 mmHg | -88 mmHg
12 | 500 mg/mL (≈ 898 mM) | COC(=O)C1=C(C)NC(C)=C(C(=O)OCC(C)(C)CN2CCN(C(C)C(C)=O)CC2)C1c1cccc([N+](=O)[O-])c1 (centres unmarked) [Example 19] | -86 mmHg | -85 mmHg
13 | 500 mg/mL (≈ 837 mM) | COC(=O)C1=C(C)NC(C)=C(C(=O)OCC(C)(C)CN2CCN(CC(=O)N3CCCC3)CC2)C1c1cccc([N+](=O)[O-])c1 (centres unmarked) [Example 26] | -53 mmHg | -32 mmHg
14 | 500 mg/mL | C#CCCCN1CCN(CC(C)(C)COC(=O)C2=C(C)NC(C)=C(C(=O)OC)C2c2cccc([N+](=O)[O-])c2)CC1.Cl.Cl (centres unmarked) [Example 21, 2,2-Dimethyl-3-[4-(4-pentynyl)-1-piperazinyl]propyl Methyl 1,4-Dihydro-2,6-dimethyl-4-(3-nitrophenyl)-3,5-pyridinedicarboxylate Dihydrochloride] | -112 mmHg | -98 mmHg
15 | – | COC(=O)C1=C(C)NC(C)=C(C(=O)OCC(C)(C)CN2CCN(CC=Cc3ccccc3)CC2)C1c1cccc([N+](=O)[O-])c1.Cl.Cl (centres unmarked) [Example 13, 2,2-Dimethyl-3-(4-cinnamyl-1-piperazinyl)propyl Methyl 1,4-Dihydro-2,6-dimethyl-4-(3-nitrophenyl)-3,5-pyridinedicarboxylate Dihydrochloride] | -69 mmHg | -77 mmHg
16 | 500 mg/mL | C=CCN1CCN(CC(C)(C)COC(=O)C2=C(C)NC(C)=C(C(=O)OC)C2c2cccc([N+](=O)[O-])c2)CC1.Cl.Cl (centres unmarked) [Example 2, 3-(4-allyl-1-piperazinyl)-2,2-dimethylpropyl methyl 2,6-dimethyl-4-(m-nitrophenyl)-1,4-dihydropyridine-3,5-dicarboxylate dihydrochloride] | -81 mmHg | -104 mmHg
17 | 500 mg/mL (≈ 953 mM) | C#CCN1CCN(CC(C)(C)COC(=O)C2=C(C)NC(C)=C(C(=O)OC)C2c2cccc([N+](=O)[O-])c2)CC1 (centres unmarked) [Example 12] | -70 mmHg | -102 mmHg
18 | 500 mg/mL | COC(=O)C1=C(C)NC(C)=C(C(=O)OCC(C)(C)CN2CCN(CCC#N)CC2)C1c1cccc([N+](=O)[O-])c1 (centres unmarked) [Example 14, 2,2-Dimethyl-3-[4-(2-cyanoethyl)-1-piperazinyl]propyl Methyl 1,4-Dihydro-2,6-dimethyl-4-(3-nitrophenyl)-3,5-pyridinedicarboxylateDihydrochloride] | -43 mmHg | -88 mmHg
19 | 312 mg/mL (≈ 578 mM) | C=C(C)CN1CCN(CC(C)(C)COC(=O)C2=C(C)NC(C)=C(C(=O)OC)C2c2cccc([N+](=O)[O-])c2)CC1 (centres unmarked) [Example 17] | -112 mmHg | -107 mmHg

Row | SMILES | solubility at 0.5 h (Water solubility test) | Change in blood pressure, 4 hours after administration [1] | Change in blood pressure, 8 hours after administration [1]
20 | COC(=O)C1=C(C)NC(C)=C(C(=O)OCC(C)(C)CN2CCN(CCO[N+](=O)[O-])CC2)C1c1cccc([N+](=O)[O-])c1 (centres unmarked) [Example 24] | 500 mg/mL (≈ 869 mM) | -91 mmHg | -69 mmHg

From patent US4937242A, “1,4-dihydropyridine derivatives and pharmaceutical composition thereof” (Kyoto Pharmaceutical Industries, Ltd., priority 1987, dated 1990)
